Measured values as given in patent US8143282B2, “Heterocyclic compounds” (S*BIO Pte Ltd., priority 2005, dated 2012).

Columns and labels:
HEP3B = experiment: Cell-based proliferation assay for GI50 (CyQUANT), HEP3B; settings: Homo sapiens, 96 h treatment, read-out: Cellular or Growth Inhibition Activity, GI50, HEP3B
Protocol: (§1) Human colon cancer cell lines (Colo205, HCT116), Ovarian cancer cell line (A2780), Hepatoma cell line (HEP3B), Prostate cancer cell line (PC3) were obtained from ATCC or ECACC. Colo205 cells were cultivated in RPMI 1640 containing 2 mM L-Glutamine, 5% FBS, 1.0 mM Na Pyruvate, 1 U/ml of penicillin and 1 μg of streptomycin. HCT116 cells were cultivated in McCoy's containing RPMI 1640 containing 2 mM L-Glutamine, 5% FBS, 1 U/ml of penicillin and 1 μg of streptomycin. A2780 cells were cultivated in RPMI 1640 containing 2 mM L-Glutamine, 5% FBS, 1 U/ml of penicillin and 1 μg of streptomycin. HEP3B cells were cultivated in EMEM containing 2 mM L-glutamine, 5% FBS, 1% non essential amino acid, 1 mM Na Pyruvate, 1 U/ml of penicillin and 1 μg of streptomycin. PC3 cells were cultivated in F12K, 2 mM L-glutamine, 5% FBS, 1 U/ml of penicillin and 1 μg of streptomycin. PC3, Colo205, and HCT116 cells were seeded in 96-wells plate at 1000, 5000 and 6000 cells per well respectively. A2780 and HEP3B cells were seeded in 96-wells plate at 4000 cells per well respectively. The plates were incubated at 37° C., 5% CO2, for 24 h. Cells were treated with compounds at various concentrations for 96 h. Cell growth was then monitored using CyQUANT® cell proliferation assay (Invitrogen Pte Ltd). Dose response curves were plotted to determine GI50 values for the compounds using XL-fit (ID Business Solution, Emeryville, Calif.). GI50 is defined as the concentration of compound required for 50% inhibition of cell growth.

HDAC1 enzyme = target: T1, HDAC1 enzyme (Homo sapiens, UniProt Q13547); experiment: In vitro HDAC assay for determination of IC50 values (BIOMOL fluorescent-based HDAC activity assay); assay type: biochemical
T1 construct: Amplification of human HDAC1 coding region from this cDNA library was cloned separately into the baculovirus expression pDEST20 vector; made in house; host or cells: SF9 insect cells, pDEST20-HDAC1 baculovirus
T1 sequence (Q13547 whole entry): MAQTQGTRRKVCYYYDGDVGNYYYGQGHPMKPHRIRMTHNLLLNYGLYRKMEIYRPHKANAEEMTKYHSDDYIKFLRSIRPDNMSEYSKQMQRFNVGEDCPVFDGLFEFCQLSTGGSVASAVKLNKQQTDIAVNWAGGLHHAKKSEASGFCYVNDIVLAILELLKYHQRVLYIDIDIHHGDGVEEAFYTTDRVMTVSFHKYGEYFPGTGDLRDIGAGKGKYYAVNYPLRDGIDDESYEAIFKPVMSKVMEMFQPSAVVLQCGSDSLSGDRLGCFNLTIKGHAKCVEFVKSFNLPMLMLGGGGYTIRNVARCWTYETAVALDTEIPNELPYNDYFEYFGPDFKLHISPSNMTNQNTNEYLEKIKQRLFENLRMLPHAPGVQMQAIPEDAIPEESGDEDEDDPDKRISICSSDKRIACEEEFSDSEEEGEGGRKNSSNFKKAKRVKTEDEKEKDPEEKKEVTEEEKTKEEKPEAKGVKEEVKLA
How it was run: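 Recombinant GST-HDAC1, cloned from SW620 cDNA and expressed in Sf9 cells, tested in a fluorogenic Fluor de Lys deacetylase assay. Developer was added for 10 min and fluorescence read at 360/460 nm. IC50 came from concentration series.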

HCT116 = experiment: Cell-based proliferation assay for GI50 (CyQUANT), HCT116; settings: Homo sapiens, HCT-116; HCT116, 96 h treatment; read-out: Cellular or Growth Inhibition Activity, GI50, HCT116
Protocol: as §1

[1] = In vivo pharmacokinetic (PK) studies; settings: mouse, plasma, po; mice, hydrochloric acid salt form (2HCl), 50 mg/kg
Protocol: Compound was dissolved in appropriate solution (saline or DMA and Cremaphor in saline) at 1 mg/ml for intravenous (IV) administration, or in 0.5% methyl cellulose, 0.1% Tween 80 in water at 5 mg/ml for oral administration. Mice were randomized according to body weight, grouped three per time point. Mice were administered single IV dose (10 mg/kg) via tail vein, or single oral dose (50 mg/kg) via gavage. At pre-defined time points (predose, 5 or 10, 30 min, 1, 2, 4, 8, and 24 h), one group of mice was sacrificed by overdose CO2 and blood samples were collected by cardiac puncture. The blood samples were centrifuged immediately for 10 min at 3000 rpm to separate plasma, and plasma was kept frozen at −80° C. until analysis by LC/MS/MS. Before sample analysis, the method was developed for LC/MS/MS assay. The method was validated for signal-response of the calibration standards, auto-sampler stability for ˜15 hours intra-day and inter-day calibration curve using eight calibration standards excluding the blank plasma. QC samples at three different concentrations in triplicates were prepared to determine the accuracy and precision. The extracted QC samples were compared to unextracted samples to determine the extraction efficiency of the analyte. LLOQ was determined by using triplicate samples of 1 ng/mL and 2 ng/mL to obtain accuracy and precision at the low end. Samples were analysed using the validated method. Data was analyzed by the non-compartmental model using WinNolin 4.0 software (Pharsight, Mountain View, Calif., USA). The mean values for the plasma compound concentration-time profiles were used in mouse PK study.
The PK parameter AUC0-last providing the information on the overall exposure of the drug in vivo is one of the key PK/PD parameters that helps in predicting the efficacy of an anti-cancer compound. The higher the AUC value, the better will be the in vivo efficacy of the compound at similar in vitro potency.

A2780 = experiment: Cell-based proliferation assay for GI50 (CyQUANT), A2780; settings: Homo sapiens; A2780, 96 h treatment; read-out: Cellular or Growth Inhibition Activity, GI50, A2780
Protocol: as §1

Colo205 cells = experiment: Cell-based proliferation assay for GI50 (CyQUANT), Colo205; settings: Homo sapiens, COLO 205, 96 h treatment, read-out: Cellular or Growth Inhibition Activity in Colo205 cells, GI50
How it was run: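 Cells were seeded at 1000 (PC3), 5000 (Colo205), 6000 (HCT116) or 4000 (HEP3B) per well and left 24 h at 37° C. Compound treatment lasted 96 h. Growth was read by CyQUANT, and GI50 (50% growth inhibition) came from dose-response curves.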

[2] = Measurement of microsomal stability; assay type: in vitro ADME; settings: pooled human liver microsomes, pH 7.4; human liver microsome, 5 μM test compound, 1.0 mg/ml microsomal protein
Protocol: Metabolic stability measurements in the in vitro using liver microsomes aids in the prediction of the in vivo hepatic clearance and the compound stability towards phase I biotransformation reactions mediated by P450 isozymes.
Pooled human liver microsome (HLM was purchased from BD Gentest (BD BioSciences). The incubations consisted of test compound (5 μM) or control compound (Verapamil), NADPH-generating system solution A (25 mM NADP^+, 66 mM glucose-6-phosphate, 66 mM MgCl2 in H2O), NADPH-generating system solution B (40 U/ml glucose-6-phosphate dehydrogenase in 5 mM sodium citrate) and 1.0 mg/ml microsomal protein, respectively, in 100 mM potassium phosphate buffer (pH 7.4). Samples were incubated for 0, 5, 15, 30, 45, 60 min. Reaction was terminated with ice-cold 80% acetonitrile and 20% DMSO. Samples were subsequently centrifuged at 4° C. for 15 min at 2,000 rpm. 100 μL of the supernatant was transferred to the LC-MS Plate for analysis. Before quantitative analysis, the compound was tuned in LC/MS machine to get the optimized MS condition. Liquid chromatography was performed on a Luna C18 column (Phenomenex U.S.A, Torrance, Calif.) (2×50 mm, 5 μM). % of the compound remaining (by area) at each time point is calculated with respect to time 0 min. Plot % remaining against time (min) to obtain the curve and use the Prism software to obtain the t1/2.

PC3 = experiment: Cell-based proliferation assay for GI50 (CyQUANT), PC3; settings: Homo sapiens, PC-3; PC3, 96 h treatment; read-out: Cellular or Growth Inhibition Activity, GI50, PC3
Protocol: as §1

Row | SMILES | GI50 (HEP3B) [nM] | IC50 (HDAC1 enzyme) [nM] | GI50 (HCT116) [nM] | AUC(0-t) [1] [ng·h/mL] | GI50 (A2780) [nM] | GI50 (Colo205 cells) [nM] | half-life at 5 μM [2] [min] | GI50 (PC3) [nM]
1 | CCCCc1nc2cc(/C=C/C(=O)NO)ccc2n1CCN(CC)CC [Compound 8, 3-[2-Butyl-1-(2-diethylamino-ethyl)-1H-benzoimidazol-5-yl]-N-hydroxy-acrylamide] | 1000 to 5000 | 52 | 500 to 1000 | 1840 | 500 to 1000 | 560 | > 30 | < 500
2 | CN(C)CC(C)(C)Cn1c(CC(C)(C)C)nc2cc(/C=C/C(=O)NO)ccc21 [Compound 1, 3-[1-(3-Dimethylamino-2,2-dimethyl-propyl)-2-(2,2-dimethyl-propyl)-1H-benzoimidazol-5-yl]-N-hydroxy-acrylamide] | 500 to 1000 | 42 | 500 to 1000 | 1870 | < 500 | 500 | > 30 | < 500
